The supplement of paper PMC10331698
± gives the standard deviation of the averaged measurements.

Columns and labels:
Assay in all cases: level (log10 ratio to DMSO vehicle control); higher = higher biomarker level / cell amount than vehicle control
Details in all cases: in DMSO
[1] = compound: CCCCCCCCC(F)(F)C(F)(F)C(F)(F)C(F)(F)C(F)(F)C(F)(F)F [1-(Perfluorohexyl)octane]
Experimental: (§1)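 BioMAP Diversity Plus panel of 12 human primary cell co-culture systems (3C, 4H, LPS, SAg, BT, BF4T, BE3C, CASM3C, HDF3CGF, KF3CT, MyoF, Mphg). Compounds were added 1 h before stimulation and left for 24 h (MyoF 48 h; BT 72 h for soluble read-outs or 6 d for IgG). Biomarkers were read by ELISA, cytotoxicity by SRB, PBMC viability and proliferation by Alamar Blue. Each well value was divided by the mean of 8 DMSO control wells on the same plate and log10 transformed; duplicate blinded samples were tested at 4 concentrations.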

[2] = compound: N=C(N)C(F)(F)C(F)(F)C(F)(F)C(F)(F)C(F)(F)C(F)(F)C(F)(F)F [Perfluorooctanamidine]
Experimental: as §1

[3] = compound: O=C(O)C(F)(F)C(F)(F)C(F)(F)C(F)(F)C(F)(F)C(F)(F)C(F)(F)C(F)(F)Cl [9-Chloro-perfluorononanoic acid]
Experimental: as §1

[4] = compound: O=C(O)C(F)(F)C(F)(F)C(F)(F)C(F)(F)C(F)(F)F [Perfluorohexanoic acid]
Experimental: as §1

[5] = compound: O=C(O)CCC(F)(F)C(F)(F)C(F)(F)C(F)(F)C(F)(F)F [2H,2H,3H,3H-Perfluorooctanoic acid]
Experimental: as §1

[6] = compound: O=S(=O)(O)C(F)(F)C(F)(F)C(F)(F)C(F)(F)C(F)(F)C(F)(F)C(F)(F)C(F)(F)F [Potassium perfluorooctanesulfonate]
Experimental: as §1

[7] = compound: OCC(F)(F)C(F)(F)C(F)(F)C(F)(F)C(F)(F)C(F)F [1H,1H,7H-Dodecafluoro-1-heptanol]
Experimental: as §1

Row | Test System | level (log10) ([1]; 6700 nM) | level (log10) ([1]; 20000 nM) | level (log10) ([2]; 6700 nM) | level (log10) ([2]; 20000 nM) | level (log10) ([2]; 60000 nM) | level (log10) ([3]; 6700 nM) | level (log10) ([3]; 20000 nM) | level (log10) ([4]; 6700 nM) | level (log10) ([4]; 20000 nM) | level (log10) ([4]; 60000 nM) | level (log10) ([5]; 6700 nM) | level (log10) ([5]; 20000 nM) | level (log10) ([5]; 60000 nM) | level (log10) ([6]; 6700 nM) | level (log10) ([6]; 20000 nM) | level (log10) ([6]; 60000 nM) | level (log10) ([7]; 6700 nM) | level (log10) ([7]; 20000 nM) | level (log10) ([7]; 60000 nM)
1 | lMphg:CCL2/MCP-1 | -0.0225 ± 0.022 | 0.0065 ± 0.025 | -0.03 ± 0.016 | -0.006 ± 0.0085 | 0.021 | 0.008 ± 0.047 | 0.0025 ± 0.015 | -0.0065 ± 0.028 | -0.021 ± 0.0099 | -0.014 ± 0.041 | 0.007 ± 0.016 | -0.0115 ± 0.005 | -0.01 | -0.0275 ± 0.018 | -0.013 ± 0.047 | -0.0155 ± 0.026 | -0.011 ± 0.014 | -0.009 ± 0.024 | 0.0115 ± 0.035
2 | lMphg:CCL3/MIP-1alpha | -0.022 ± 0.021 | 0.0035 ± 0.021 | -0.029 ± 0.03 | 0.0015 ± 0.035 | 0.055 | 0.0205 ± 0.029 | 0.0045 ± 0.046 | 0.006 | -0.009 ± 0.011 | 0.0025 ± 0.011 | 0.032 ± 0.052 | 0.0625 ± 0.081 | 0.0765 ± 0.053 | -0.0105 ± 0.0035 | -0.0255 ± 0.0092 | -0.016 ± 0.02 | 0.0185 ± 0.063 | 0.0115 ± 0.019 | 0.044 ± 0.0085
3 | lMphg:CD40 | -0.0185 ± 0.011 | -0.023 ± 0.021 | -0.016 ± 0.023 | -0.0145 ± 0.005 | -0.046 | -0.0165 ± 0.0064 | -0.0155 ± 0.005 | 0.0105 ± 0.0078 | 0.016 ± 0.02 | -0.008 ± 0.0028 | -0.0205 ± 0.039 | -0.0235 ± 0.04 | -0.05 ± 0.041 | -0.0245 ± 0.0035 | -0.0125 ± 0.0092 | 0.002 ± 0.017 | -0.047 ± 0.082 | -0.0425 ± 0.047 | -0.061 ± 0.071
4 | lMphg:CD62E/E-Selectin | 0.0205 ± 0.012 | -0.0145 ± 0.03 | 0.0065 ± 0.042 | 0.0655 ± 0.015 | 0.049 | 0.01 ± 0.0099 | 0.017 ± 0.0042 | 0.0025 ± 0.016 | 0 ± 0.0014 | -0.014 ± 0.0042 | 0.0015 ± 0.035 | 0.0165 ± 0.0064 | 0.0415 ± 0.00071 | 0.0145 ± 0.0092 | 0.052 ± 0.023 | 0.204 | -0.0295 ± 0.025 | -0.0265 ± 0.0035 | 0.001 ± 0.048
5 | lMphg:CD69 | -0.0265 ± 0.0078 | -0.0345 ± 0.015 | -0.048 ± 0.0028 | -0.052 ± 0.0085 | 0.029 | -0.049 ± 0.024 | -0.053 ± 0.016 | 0.005 ± 0.035 | -0.003 ± 0.0071 | -0.017 ± 0.0042 | -0.032 ± 0.05 | -0.0325 ± 0.063 | -0.016 ± 0.031 | -0.04 ± 0.0028 | -0.052 ± 0.02 | -0.074 ± 0.04 | -0.0275 ± 0.0021 | -0.0305 ± 0.0064 | -0.018 ± 0.075
6 | lMphg:CD106/VCAM-1 | -0.0105 ± 0.012 | -0.035 ± 0.017 | -0.006 ± 0.0028 | -0.008 ± 0.0057 | -0.08 | -0.011 ± 0.0099 | -0.016 ± 0.0071 | 0.0065 ± 0.016 | -0.0055 ± 0.011 | 0.0005 ± 0.018 | -0.0135 ± 0.0092 | -0.022 ± 0.023 | -0.011 ± 0.021 | -0.012 ± 0.018 | 0.0015 ± 0.005 | -0.038 ± 0.017 | -0.0115 ± 0.042 | -0.015 ± 0.037 | -0.027 ± 0.047
7 | lMphg:CXCL8/IL-8 | -0.0215 ± 0.0078 | 0.022 ± 0.02 | 0.011 | 0.0425 ± 0.019 | 0.175 | -0.0145 ± 0.0078 | 0.0115 ± 0.025 | 0.045 ± 0.024 | 0.0515 ± 0.036 | 0.074 ± 0.023 | -0.017 ± 0.023 | 0.066 ± 0.04 | 0.115 ± 0.018 | -0.0435 ± 0.005 | 0.0135 ± 0.03 | 0.094 ± 0.0028 | -0.003 ± 0.013 | 0.017 ± 0.025 | 0.042 ± 0.028
8 | lMphg:IL-1alpha | -0.0215 ± 0.013 | 0.0085 ± 0.074 | -0.011 ± 0.024 | -0.004 ± 0.044 | 0.027 | 0.014 ± 0.027 | 0.0635 ± 0.046 | 0.0035 ± 0.04 | 0 ± 0.011 | -0.009 ± 0.033 | 0.03 ± 0.028 | 0.0675 ± 0.071 | 0.129 ± 0.067 | -0.003 ± 0.028 | 0.0235 ± 0.015 | 0.0125 ± 0.012 | -0.0255 ± 0.056 | -0.0275 ± 0.079 | -0.0735 ± 0.18
9 | lMphg:M-CSF | -0.0235 ± 0.021 | -0.0205 ± 0.036 | -0.0155 ± 0.016 | -0.0015 ± 0.0021 | -0.001 | -0.0055 ± 0.0021 | -0.0045 ± 0.0021 | 0.0005 ± 0.028 | -0.011 ± 0.028 | -0.023 ± 0.0014 | -0.0155 ± 0.0021 | 0.0035 ± 0.0064 | -0.046 ± 0.014 | -0.0005 ± 0.005 | -0.004 ± 0.0057 | 0.035 ± 0.016 | -0.0115 ± 0.005 | -0.0035 ± 0.0078 | 0.0085 ± 0.044
10 | lMphg:SRB | 0.002 ± 0.0042 | 0 ± 0.0085 | -0.006 ± 0.016 | 0.004 ± 0.016 | 0.001 | 0.0105 ± 0.0092 | 0.013 ± 0.0042 | -0.019 ± 0.0085 | -0.0175 ± 0.0064 | -0.006 ± 0.0085 | -0.0025 ± 0.0035 | 0.001 ± 0.0014 | 0.007 ± 0.0085 | -0.0065 ± 0.015 | -0.01 ± 0.0071 | -0.015 ± 0.011 | -0.018 ± 0.028 | 0.0015 ± 0.005 | -0.0025 ± 0.00071
11 | lMphg:SRB-Mphg | -0.007 ± 0.013 | 0.0305 ± 0.019 | 0.0145 ± 0.011 | 0.009 ± 0.014 | 0.007 | 0.01 ± 0.0042 | 0.0055 ± 0.018 | -0.0005 ± 0.011 | 0.003 ± 0.0071 | 0.0115 ± 0.0035 | 0.0115 ± 0.0035 | 0.0065 ± 0.015 | 0.007 ± 0.017 | 0.0005 ± 0.005 | 0.0005 ± 0.011 | 0.0115 ± 0.005 | -0.028 ± 0.095 | -0.046 ± 0.0085 | 0.0615 ± 0.052
12 | lMphg:sIL-10 | -0.0375 ± 0.056 | -0.036 ± 0.054 | -0.051 ± 0.018 | -0.118 ± 0.0057 | -0.121 | 0.0205 ± 0.0078 | -0.015 ± 0.0085 | -0.0285 ± 0.0092 | -0.0375 ± 0.046 | -0.0945 ± 0.021 | -0.073 ± 0.0085 | -0.043 | -0.216 ± 0.011 | 0.015 ± 0.0014 | -0.0445 ± 0.0092 | -0.647 ± 0.025 | 0.0085 ± 0.11 | -0.006 ± 0.031 | 0.0485 ± 0.0078
